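1) Cells in 96-well plates. 2) Compound, 48 h, 5 concentrations. 3) Linear interpolation between surrounding doses. 4) Unreached endpoint = highest concentration. TGI marks complete inhibition of growth.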
Key:
Assay in all cases: NCI-60 cell line screen, 48 h
HOP-92 NSCLC = test system: HOP-92 NSCLC
HL-60(TB) leukemia = test system: HL-60(TB) leukemia
OVCAR-3 ovarian = test system: OVCAR-3 ovarian
786-0 renal = test system: 786-0 renal
OVCAR-4 ovarian = test system: OVCAR-4 ovarian
HOP-62 NSCLC = test system: HOP-62 NSCLC
M14 melanoma = test system: M14 melanoma
SF-295 CNS = test system: SF-295 CNS
A549 NSCLC = test system: A549 NSCLC
U251 CNS = test system: U251 CNS
SW-620 colon = test system: SW-620 colon
OVCAR-5 ovarian = test system: OVCAR-5 ovarian
IGROV1 ovarian = test system: IGROV1 ovarian
K-562 leukemia = test system: K-562 leukemia
RPMI-8226 leukemia = test system: RPMI-8226 leukemia
TK-10 renal = test system: TK-10 renal
EKVX NSCLC = test system: EKVX NSCLC
COLO 205 colon = test system: COLO 205 colon
DU-145 prostate = test system: DU-145 prostate
MDA-N = test system: MDA-N
T-47D breast = test system: T-47D breast
SR leukemia = test system: SR leukemia
KM12 colon = test system: KM12 colon
MDA-MB-435 = test system: MDA-MB-435
BT-549 breast = test system: BT-549 breast
HT29 colon = test system: HT29 colon
HCC-2998 colon = test system: HCC-2998 colon
SF-539 CNS = test system: SF-539 CNS
SK-MEL-5 melanoma = test system: SK-MEL-5 melanoma
NCI-H23 lung = test system: NCI-H23 lung
NCI-H226 lung = test system: NCI-H226 lung
PC-3 prostate = test system: PC-3 prostate
MCF7 breast = test system: MCF7 breast
A498 renal = test system: A498 renal
RXF 393 renal = test system: RXF 393 renal
MDA-MB-231 breast = test system: MDA-MB-231 breast
OVCAR-8 ovarian = test system: OVCAR-8 ovarian
SNB-19 CNS = test system: SNB-19 CNS
SN12C renal = test system: SN12C renal
NCI-H522 lung = test system: NCI-H522 lung
HCT-116 colon = test system: HCT-116 colon
UACC-62 melanoma = test system: UACC-62 melanoma
SK-OV-3 ovarian = test system: SK-OV-3 ovarian
CCRF-CEM leukemia = test system: CCRF-CEM leukemia
UO-31 renal = test system: UO-31 renal
MOLT-4 leukemia = test system: MOLT-4 leukemia
SK-MEL-28 melanoma = test system: SK-MEL-28 melanoma
ACHN renal = test system: ACHN renal
SF-268 CNS = test system: SF-268 CNS
SNB-75 CNS = test system: SNB-75 CNS
CAKI-1 renal = test system: CAKI-1 renal
HCT-15 colon = test system: HCT-15 colon
SK-MEL-2 melanoma = test system: SK-MEL-2 melanoma
MALME-3M melanoma = test system: MALME-3M melanoma
NCI-H460 lung = test system: NCI-H460 lung
LOX IMVI melanoma = test system: LOX IMVI melanoma
UACC-257 melanoma = test system: UACC-257 melanoma
NCI/ADR-RES ovarian = test system: NCI/ADR-RES ovarian

Structure (SMILES): CC(C)(Br)C(Br)CCC1(C(Br)CBr)CO1 (configuration not stated)
- TGI (HOP-92 NSCLC): > 10 µM
- TGI (HL-60(TB) leukemia): > 10 µM
- TGI (OVCAR-3 ovarian): > 10 µM
- TGI (786-0 renal): > 10 µM
- TGI (OVCAR-4 ovarian): > 10 µM
- TGI (HOP-62 NSCLC): > 10 µM
- TGI (M14 melanoma): > 10 µM
- TGI (SF-295 CNS): > 10 µM
- TGI (A549 NSCLC): > 10 µM
- TGI (U251 CNS): > 10 µM
- TGI (SW-620 colon): > 10 µM
- TGI (OVCAR-5 ovarian): > 10 µM
- TGI (IGROV1 ovarian): > 10 µM
- TGI (K-562 leukemia): > 10 µM
- TGI (RPMI-8226 leukemia): > 10 µM
- TGI (TK-10 renal): > 10 µM
- TGI (EKVX NSCLC): > 10 µM
- TGI (COLO 205 colon): > 10 µM
- TGI (DU-145 prostate): > 10 µM
- TGI (MDA-N): > 10 µM
- TGI (T-47D breast): > 10 µM
- TGI (SR leukemia): > 10 µM
- TGI (KM12 colon): > 10 µM
- TGI (MDA-MB-435): > 10 µM
- TGI (BT-549 breast): > 10 µM
- TGI (HT29 colon): > 10 µM
- TGI (HCC-2998 colon): > 10 µM
- TGI (SF-539 CNS): > 10 µM
- TGI (SK-MEL-5 melanoma): > 10 µM
- TGI (NCI-H23 lung): > 10 µM
- TGI (NCI-H226 lung): > 10 µM
- TGI (PC-3 prostate): > 10 µM
- TGI (MCF7 breast): > 10 µM
- TGI (A498 renal): > 10 µM
- TGI (RXF 393 renal): > 10 µM
- TGI (MDA-MB-231 breast): > 10 µM
- TGI (OVCAR-8 ovarian): > 10 µM
- TGI (SNB-19 CNS): > 10 µM
- TGI (SN12C renal): > 10 µM
- TGI (NCI-H522 lung): > 10 µM
- TGI (HCT-116 colon): > 10 µM
- TGI (UACC-62 melanoma): > 10 µM
- TGI (SK-OV-3 ovarian): > 10 µM
- TGI (CCRF-CEM leukemia): > 10 µM
- TGI (UO-31 renal): > 10 µM
- TGI (MOLT-4 leukemia): > 10 µM
- TGI (SK-MEL-28 melanoma): > 10 µM
- TGI (ACHN renal): > 10 µM
- TGI (SF-268 CNS): > 10 µM
- TGI (SNB-75 CNS): > 10 µM
- TGI (CAKI-1 renal): > 10 µM

Structure (SMILES): OC1c2[nH]c3ccccc3c2CCN2CCCCC12 (configuration not stated)
- TGI (HOP-92 NSCLC): > 100 µM
- TGI (HL-60(TB) leukemia): > 100 µM
- TGI (OVCAR-3 ovarian): > 100 µM
- TGI (786-0 renal): > 100 µM
- TGI (OVCAR-4 ovarian): > 100 µM
- TGI (HOP-62 NSCLC): > 100 µM
- TGI (M14 melanoma): > 100 µM
- TGI (SF-295 CNS): > 100 µM
- TGI (A549 NSCLC): > 100 µM
- TGI (HCT-15 colon): > 100 µM
- TGI (U251 CNS): > 100 µM
- TGI (SW-620 colon): > 100 µM
- TGI (SK-MEL-2 melanoma): > 100 µM
- TGI (OVCAR-5 ovarian): > 100 µM
- TGI (IGROV1 ovarian): > 100 µM
- TGI (K-562 leukemia): > 100 µM
- TGI (RPMI-8226 leukemia): > 100 µM
- TGI (TK-10 renal): > 100 µM
- TGI (EKVX NSCLC): > 100 µM
- TGI (COLO 205 colon): > 100 µM
- TGI (DU-145 prostate): > 100 µM
- TGI (MALME-3M melanoma): > 100 µM
- TGI (MDA-N): > 100 µM
- TGI (T-47D breast): > 100 µM
- TGI (SR leukemia): > 100 µM
- TGI (KM12 colon): > 100 µM
- TGI (MDA-MB-435): > 100 µM
- TGI (BT-549 breast): > 100 µM
- TGI (HT29 colon): > 100 µM
- TGI (HCC-2998 colon): > 100 µM
- TGI (SF-539 CNS): > 100 µM
- TGI (NCI-H23 lung): > 100 µM
- TGI (NCI-H226 lung): > 100 µM
- TGI (PC-3 prostate): > 100 µM
- TGI (MCF7 breast): > 100 µM
- TGI (NCI-H460 lung): > 100 µM
- TGI (LOX IMVI melanoma): > 100 µM
- TGI (A498 renal): > 100 µM
- TGI (RXF 393 renal): > 100 µM
- TGI (MDA-MB-231 breast): > 100 µM
- TGI (OVCAR-8 ovarian): > 100 µM
- TGI (SNB-19 CNS): > 100 µM
- TGI (SN12C renal): > 100 µM
- TGI (NCI-H522 lung): > 100 µM
- TGI (HCT-116 colon): > 100 µM
- TGI (UACC-62 melanoma): > 100 µM
- TGI (SK-OV-3 ovarian): > 100 µM
- TGI (UACC-257 melanoma): > 100 µM
- TGI (CCRF-CEM leukemia): > 100 µM
- TGI (MOLT-4 leukemia): > 100 µM
- TGI (NCI/ADR-RES ovarian): > 100 µM
- TGI (SK-MEL-28 melanoma): > 100 µM
- TGI (ACHN renal): > 100 µM
- TGI (SF-268 CNS): > 100 µM
- TGI (SNB-75 CNS): > 100 µM
- TGI (CAKI-1 renal): > 100 µM

— PubChem BioAssay (NCI)
